{
  "source": "patent US20110111061A1",
  "about": "“Compositions and Methods for the Treatment of Skeletal Metastatic Lesions and Fractures” (priority 2008, published 2011)",
  "experiment": "Adriamycin elution from bone cement in vitro",
  "assay_type": "physicochemical",
  "details": "one or two vials (10 mg adriamycin each) added to a packet of PMMA bone cement (22.5 g powder + 9 ml liquid monomer)",
  "procedure": "[…] […] They were mixed thoroughly to ensure there are no large adriamycin flakes. […] One gram of this composite elutes 340 micrograms of adriamycin within 24 hours in vitro. The prepared bone cement drug powder was then loaded in sterile syringes (2 g/syringe). To prepare the bone cement putty for implantation and in situ polymerization, 1 ml of Confidence™ monomer was added to this powder and mixed thoroughly 5 minutes prior to implantation.",
  "data": [
    {"molecule": "COc1cccc2c1C(=O)c1c(O)c3c(c(O)c1C2=O)C[C@@](O)(C(=O)CO)C[C@@H]3O[C@H]1C[C@H](N)[C@H](O)[C@H](C)O1", "note": "[adriamycin]", "values": [
      {"measurement": "elution of adriamycin from PMMA bone cement without filler", "result": "negligible elution"}
    ]}
  ]
}
